From US12404241B2 (Celgene Corporation, priority 2018, dated 2025)
Structures can show the parent of a compound that is named as a salt.

Molecular target: T1, AR (Homo sapiens, UniProt P10275)
T1 construct: endogenous in cells; host or cells: VCaP cells
T1 sequence (P10275 1-920): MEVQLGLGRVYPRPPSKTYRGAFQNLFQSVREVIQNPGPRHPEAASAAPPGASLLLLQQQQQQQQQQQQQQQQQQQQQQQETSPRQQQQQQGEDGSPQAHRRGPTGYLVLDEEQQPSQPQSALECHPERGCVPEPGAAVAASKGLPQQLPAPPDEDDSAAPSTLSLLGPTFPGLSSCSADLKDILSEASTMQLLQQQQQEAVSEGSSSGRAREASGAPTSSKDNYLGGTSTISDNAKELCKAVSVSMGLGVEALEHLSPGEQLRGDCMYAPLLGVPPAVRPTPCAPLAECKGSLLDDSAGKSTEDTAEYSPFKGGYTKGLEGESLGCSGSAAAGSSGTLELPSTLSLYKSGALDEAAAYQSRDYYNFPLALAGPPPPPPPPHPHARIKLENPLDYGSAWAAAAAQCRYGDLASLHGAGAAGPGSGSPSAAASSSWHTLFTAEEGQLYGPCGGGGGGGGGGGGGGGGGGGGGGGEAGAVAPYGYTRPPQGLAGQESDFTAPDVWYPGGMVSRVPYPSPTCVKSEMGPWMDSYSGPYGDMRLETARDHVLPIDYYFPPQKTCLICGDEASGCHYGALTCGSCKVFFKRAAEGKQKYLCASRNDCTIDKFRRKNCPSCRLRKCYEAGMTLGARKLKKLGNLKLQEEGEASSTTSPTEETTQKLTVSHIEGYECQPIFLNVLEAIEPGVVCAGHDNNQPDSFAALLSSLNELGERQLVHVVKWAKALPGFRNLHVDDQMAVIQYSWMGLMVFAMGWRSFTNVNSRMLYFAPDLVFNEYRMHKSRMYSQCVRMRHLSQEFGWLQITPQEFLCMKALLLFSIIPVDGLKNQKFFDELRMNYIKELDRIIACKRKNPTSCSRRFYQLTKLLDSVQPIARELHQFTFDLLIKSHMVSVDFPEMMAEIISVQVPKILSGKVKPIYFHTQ
Assay: VCAP AR Degradation Assay
Assay type: cell-based
Conditions: for Y (AR degradation efficiency, % of DMSO control): class symbols *; for DC50: class symbols A-C, read-out: DC50
In short: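 VCaP cells treated 24 h at 37 °C with a 10-point 1:3 series (top 5 μM final; 0.1% DMSO control). Lysate AR measured by sandwich ELISA, normalized to DMSO as percent of control; DC50, EC50 and lowest AR level (Y) from four-parameter logistic fit.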

In the case of `CC(C)c1cc(N2C(=S)N(c3ccc(C#N)c(C(F)(F)F)c3)C(=O)C2(C)C)cnc1OCCN1C[C@@H](C)N(CC(=O)Nc2cccc(NC3CCC(=O)NC3=O)c2)[C@@H](C)C1` (stereo partly drawn) [Example 224, 2-((2R,6S)-4-(2-(5-(3-(4-cyano-3-(trifluoromethyl)phenyl)-5,5-dimethyl-4-oxo-2-thioxoimidazolidin-1-yl)-3-isopropylpyridin-2-yloxy)ethyl)-2,6-dimethylpiperazin-1-yl)-N-(3-(2,6-dioxopiperidin-3-ylamino)phenyl)acetamide], the “Y (AR degradation efficiency, % of DMSO control)” value is reported as “** (25%<Y<=35%)” and the DC50 is reported as 100 to 500 nM.
For `Cc1cc(OCCN2CCN(CC(=O)Nc3cccc(NC4CCC(=O)NC4=O)c3)CC2)c(F)cc1N1C(=S)N(c2ccc(C#N)c(C(F)(F)F)c2)C(=O)C1(C)C` (centres unmarked) [Example 13, hydrochloride], the “Y (AR degradation efficiency, % of DMSO control)” value was “*** (35%<Y<50%)” and the DC50 was less than 100 nM.
In the case of `CCc1cc(N2C(=S)N(c3ccc(C#N)c(C(F)(F)F)c3)C(=O)C2(C)C)ccc1OCCN1CCN(C(C)(C)C(=O)Nc2cc(Cl)cc(NC3CCC(=O)NC3=O)c2)CC1` (centres unmarked) [Example 133, N-(3-chloro-5-(2,6-dioxopiperidin-3-ylamino)phenyl)-2-(4-(2-(4-(3-(4-cyano-3-(trifluoromethyl)phenyl)-5,5-dimethyl-4-oxo-2-thioxoimidazolidin-1-yl)-2-ethylphenoxy)ethyl)piperazin-1-yl)-2-methylpropanamide], the “Y (AR degradation efficiency, % of DMSO control)” value is reported as “** (25%<Y<=35%)” and the DC50 is reported as 100 to 500 nM.
`CC1(C)C(=O)N(c2cnc(C#N)c(C(F)(F)F)c2)C(=S)N1c1ccc(OCCN2CCN(CC(=O)Nc3cc(F)cc(NC4CCC(=O)NC4=O)c3)CC2)c(CC(F)F)c1` (centres unmarked) [Example 68, 2-(4-(2-(4-(3-(6-cyano-5-(trifluoromethyl)pyridin-3-yl)-5,5-dimethyl-4-oxo-2-thioxoimidazolidin-1-yl)-2-(2,2-difluoroethyl)phenoxy)ethyl)piperazin-1-yl)-N-(3-(2,6-dioxopiperidin-3-ylamino)-5-fluorophenyl)acetamide] was tested, and the “Y (AR degradation efficiency, % of DMSO control)” value was “* (0<Y<=25%)” and the DC50 was less than 100 nM.
`CCc1cc(N2C(=S)N(c3ccc(C#N)c(C(F)(F)F)c3)C(=O)C2(C)C)ccc1OCCN1CCN(CC(=O)Nc2cc(Cl)cc(NC3CCC(=O)NC3=O)c2)C(C)(C)C1` (centres unmarked) [Example 79, N-(3-chloro-5-(2,6-dioxopiperidin-3-ylamino)phenyl)-2-(4-(2-(4-(3-(4-cyano-3-(trifluoromethyl)phenyl)-5,5-dimethyl-4-oxo-2-thioxoimidazolidin-1-yl)-2-ethylphenoxy)ethyl)-2,2-dimethylpiperazin-1-yl)acetamide] was tested, and the “Y (AR degradation efficiency, % of DMSO control)” value was “** (25%<Y<=35%)” and the DC50 was less than 100 nM.
`CC1(C)C(=O)N(c2ccc(C#N)c(C(F)(F)F)c2)C(=S)N1c1ccc(OCCN2CCN(CC(=O)Nc3cc(Cl)cc(NC4CCC(=O)NC4=O)c3)CC2)c(C2CC2)c1` (centres unmarked) [Example 30, hydrochloride] was tested, and the “Y (AR degradation efficiency, % of DMSO control)” value was “* (0<Y<=25%)” and the DC50 was less than 100 nM.
`CCc1cc(N2C(=S)N(c3ccc(C#N)c(C(F)(F)F)c3)C(=O)C2(C)C)ccc1OCCN1CCN(CC(=O)Nc2cc(C#N)cc(NC3CCC(=O)NC3=O)c2)[C@H](C)C1` (stereo partly drawn) [Example 154, 2-((R)-4-(2-(4-(3-(4-cyano-3-(trifluoromethyl)phenyl)-5,5-dimethyl-4-oxo-2-thioxoimidazolidin-1-yl)-2-ethylphenoxy)ethyl)-2-methylpiperazin-1-yl)-N-(3-cyano-5-(2,6-dioxopiperidin-3-ylamino)phenyl)acetamide] was tested, and the “Y (AR degradation efficiency, % of DMSO control)” value was “* (0<Y<=25%)” and the DC50 was less than 100 nM.
With `CCc1cc(N2C(=S)N(c3cnc(C#N)c(C(F)(F)F)c3)C(=O)C2(C)C)ccc1OCCN1CCN(CC(=O)Nc2cc(Cl)cc(NC3CCC(=O)NC3=O)c2)[C@H](C)C1` (stereo partly drawn) [Example 145, N-(3-chloro-5-(2,6-dioxopiperidin-3-ylamino)phenyl)-2-((R)-4-(2-(4-(3-(6-cyano-5-(trifluoromethyl)pyridin-3-yl)-5,5-dimethyl-4-oxo-2-thioxoimidazolidin-1-yl)-2-ethylphenoxy)ethyl)-2-methylpiperazin-1-yl)acetamide] the “Y (AR degradation efficiency, % of DMSO control)” value was “* (0<Y<=25%)” and the DC50 was less than 100 nM.
With `CCc1cc(N2C(=S)N(c3cnc(C#N)c(C(F)(F)F)c3)C(=O)C2(C)C)ccc1OCCN1CCN(CC(=O)Nc2cccc(N[C@H]3CCC(=O)NC3=O)c2)[C@H](C)C1` [Example 137, 2-((R)-4-(2-(4-(3-(6-cyano-5-(trifluoromethyl)pyridin-3-yl)-5,5-dimethyl-4-oxo-2-thioxoimidazolidin-1-yl)-2-ethylphenoxy)ethyl)-2-methylpiperazin-1-yl)-N-(3-((S)-2,6-dioxopiperidin-3-ylamino)phenyl)acetamide] the “Y (AR degradation efficiency, % of DMSO control)” value was “* (0<Y<=25%)” and the DC50 was less than 100 nM.
In the case of `CCc1cc(N2C(=S)N(c3ccc(C#N)c(C(F)(F)F)c3)C(=O)C2(C)C)ccc1OCCN1CCN([C@@H](C)C(=O)Nc2cccc(NC3CCC(=O)NC3=O)c2)[C@H](C)C1` (stereo partly drawn) [Example 281, (2S)-2-((R)-4-(2-(4-(3-(4-cyano-3-(trifluoromethyl)phenyl)-5,5-dimethyl-4-oxo-2-thioxoimidazolidin-1-yl)-2-ethylphenoxy)ethyl)-2-methylpiperazin-1-yl)-N-(3-(2,6-dioxopiperidin-3-ylamino)phenyl)propanamide], the “Y (AR degradation efficiency, % of DMSO control)” value is reported as “* (0<Y<=25%)” and the DC50 is reported as less than 100 nM.
With `CCCc1cc(N2C(=S)N(c3cnc(C#N)c(C(F)(F)F)c3)C(=O)C2(C)C)ccc1OCCN1CCN(CC(=O)Nc2cccc(NC3CCC(=O)NC3=O)c2)CC1` (centres unmarked) [Example 38, hydrochloride] the “Y (AR degradation efficiency, % of DMSO control)” value was “* (0<Y<=25%)” and the DC50 was less than 100 nM.
With `CCc1cc(N2C(=S)N(c3ccc(C#N)c(C(F)(F)F)c3)C(=O)C2(C)C)ccc1OCCN1CCN(CC(=O)Nc2cc(NC3CCC(=O)NC3=O)ccc2Cl)CC1` (centres unmarked) [Example 41, hydrochloride] the “Y (AR degradation efficiency, % of DMSO control)” value was “* (0<Y<=25%)” and the DC50 was less than 100 nM.
In the case of `C[C@@H]1CN(CCOc2ccc(N3C(=S)N(c4ccc(C#N)c(C(F)(F)F)c4)C(=O)C3(C)C)cc2CC(F)F)CCN1CC(=O)Nc1cc(Cl)cc(NC2CCC(=O)NC2=O)c1` (stereo partly drawn) [Example 152, N-(3-chloro-5-(2,6-dioxopiperidin-3-ylamino)phenyl)-2-((R)-4-(2-(4-(3-(4-cyano-3-(trifluoromethyl)phenyl)-5,5-dimethyl-4-oxo-2-thioxoimidazolidin-1-yl)-2-(2,2-difluoroethyl)phenoxy)ethyl)-2-methylpiperazin-1-yl)acetamide], the “Y (AR degradation efficiency, % of DMSO control)” value is reported as “* (0<Y<=25%)” and the DC50 is reported as less than 100 nM.
For `C[C@@H]1CN(CCOc2ccc(N3C(=S)N(c4ccc(C#N)c(C(F)(F)F)c4)C(=O)C3(C)C)cc2C2CC2)C[C@H](C)N1CC(=O)Nc1cccc(N[C@H]2CCC(=O)NC2=O)c1` [Example 289, 2-((2R,6S)-4-(2-(4-(3-(4-cyano-3-(trifluoromethyl)phenyl)-5,5-dimethyl-4-oxo-2-thioxoimidazolidin-1-yl)-2-cyclopropylphenoxy)ethyl)-2,6-dimethylpiperazin-1-yl)-N-(3-((S)-2,6-dioxopiperidin-3-ylamino)phenyl)acetamide], the “Y (AR degradation efficiency, % of DMSO control)” value was “* (0<Y<=25%)” and the DC50 was less than 100 nM.
For `CCc1cc(N2C(=S)N(c3ccc(C#N)c(C(F)(F)F)c3)C(=O)C2(C)C)ccc1OCCN1CCN([C@H](C)C(=O)Nc2cccc(NC3CCC(=O)NC3=O)c2)CC1` (stereo partly drawn) [Example 58, (2R)-2-(4-(2-(4-(3-(4-cyano-3-(trifluoromethyl)phenyl)-5,5-dimethyl-4-oxo-2-thioxoimidazolidin-1-yl)-2-ethylphenoxy)ethyl)piperazin-1-yl)-N-(3-(2,6-dioxopiperidin-3-ylamino)phenyl)propanamide], the “Y (AR degradation efficiency, % of DMSO control)” value was “* (0<Y<=25%)” and the DC50 was less than 100 nM.
`CCc1cc(N2C(=S)N(c3ccc(C#N)c(C(F)(F)F)c3)C(=O)C2(C)C)ccc1OCCN1CCN(CC(=O)Nc2cccc(N[C@H]3CCC(=O)NC3=O)c2)[C@H](C)C1` [Example 111, 2-((R)-4-(2-(4-(3-(4-cyano-3-(trifluoromethyl)phenyl)-5,5-dimethyl-4-oxo-2-thioxoimidazolidin-1-yl)-2-ethylphenoxy)ethyl)-2-methylpiperazin-1-yl)-N-(3-((S)-2,6-dioxopiperidin-3-ylamino)phenyl)acetamide] was tested, and the “Y (AR degradation efficiency, % of DMSO control)” value was “* (0<Y<=25%)” and the DC50 was less than 100 nM.
